Measurements: ChEMBL document CHEMBL4406791, “Allosteric Modalities for Membrane-Bound Receptors: Insights from Drug Hunting for Brain Diseases” (J Med Chem, 2019)

Biological target: Metabotropic glutamate receptor 5 (Homo sapiens) (UniProt P41594)
Experiment: Binding affinity to mGluR5 (unknown origin) assessed as association rate constant

Metabotropic glutamate receptor 5 (Homo sapiens), sequence (P41594 21-1212 limits assumed): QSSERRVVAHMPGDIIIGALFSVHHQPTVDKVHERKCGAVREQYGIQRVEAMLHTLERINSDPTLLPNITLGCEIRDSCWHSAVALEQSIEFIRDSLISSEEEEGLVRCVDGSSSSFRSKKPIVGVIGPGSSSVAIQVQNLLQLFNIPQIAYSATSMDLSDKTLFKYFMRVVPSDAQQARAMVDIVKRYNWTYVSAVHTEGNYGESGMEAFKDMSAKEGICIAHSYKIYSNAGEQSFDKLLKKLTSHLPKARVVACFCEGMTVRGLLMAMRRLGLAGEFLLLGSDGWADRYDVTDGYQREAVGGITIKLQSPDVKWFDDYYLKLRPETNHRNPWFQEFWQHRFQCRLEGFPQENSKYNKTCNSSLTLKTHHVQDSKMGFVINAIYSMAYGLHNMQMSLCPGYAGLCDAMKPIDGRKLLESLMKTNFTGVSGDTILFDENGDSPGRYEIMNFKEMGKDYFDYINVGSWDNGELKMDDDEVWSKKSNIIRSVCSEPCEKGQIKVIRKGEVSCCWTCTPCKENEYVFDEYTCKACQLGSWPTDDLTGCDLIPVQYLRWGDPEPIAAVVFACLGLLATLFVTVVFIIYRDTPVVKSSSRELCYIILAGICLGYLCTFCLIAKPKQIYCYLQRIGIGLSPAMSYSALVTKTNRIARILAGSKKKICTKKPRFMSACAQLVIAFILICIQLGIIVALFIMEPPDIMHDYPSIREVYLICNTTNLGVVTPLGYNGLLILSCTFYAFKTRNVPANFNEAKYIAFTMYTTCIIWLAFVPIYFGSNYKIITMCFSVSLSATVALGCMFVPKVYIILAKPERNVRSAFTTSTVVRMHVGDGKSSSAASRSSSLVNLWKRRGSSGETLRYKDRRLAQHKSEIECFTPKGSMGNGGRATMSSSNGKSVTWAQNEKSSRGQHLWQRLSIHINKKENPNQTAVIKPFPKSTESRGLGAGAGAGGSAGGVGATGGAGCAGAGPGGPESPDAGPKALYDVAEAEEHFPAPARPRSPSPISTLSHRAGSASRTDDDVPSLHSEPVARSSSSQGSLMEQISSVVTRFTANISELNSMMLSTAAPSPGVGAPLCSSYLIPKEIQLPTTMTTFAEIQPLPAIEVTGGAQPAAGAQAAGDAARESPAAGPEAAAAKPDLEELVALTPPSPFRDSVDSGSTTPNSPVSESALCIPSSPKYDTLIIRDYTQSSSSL

With O=C(Nc1ccc(-c2ccn3c(CC4CC4)nnc3c2C(F)(F)F)cc1)c1ccc(S(=O)(=O)F)cc1 the K was 3.2 ×10³ /M/s.
